Where no end group is shown, it is not given here. [ ]: non-standard residue; d: D form. Ava = NCCCCC(=O)O

The test system of one experiment is FR74-specific T cells. The experiment can be described thus: IFN-γ ELIspot of T cell cultures generated ex vivo with polypeptide-pulsed DC. The class given is cell-based, FVB/N mice. As for the experimental part:
FIG. 4 is a graph plotting the results an IFN-γ ELIspot analyses of T cell cultures incubated with the indicated polypeptides. Epitope nesting greatly augments the numbers of antigen-specific T cells. T cells were tested in ELIspot against native FR74 polypeptide at various concentrations. Each data point is the mean of 3 determinations.
FIG. 6. FR74-specific T cells generated with modified polypeptides recognized tumor lysates. […] Each bar is the mean (±s.e.m.) of 3 replicates.
FIG. 7. […] The T cells were generated at varying concentrations of polypeptides (x-axis). Each point is the mean (±s.e.m.) of 3 replicates.
In terms of proliferation, only the dual modified polypeptide was able to generate T cells that were able to proliferate at 10^−9 g/mL (FIG. 5).
In order to determine whether furin cleavage is required, two methods are used: furin insensitive linkers and furin inhibitors. Blockade of enhanced ex vivo expansion mediated by the DC3 peptide using these two methods is powerful evidence, outside of a furin knockout mouse, that furin is required for the actions of DC3. Although it has already been shown that DC3 must be linked to antigen, as a control T cells are expanded using free FR74 mixed with free DC3. To test the role of furin with furin-insensitive linkers, RARR (SEQ ID NO:4) is replaced with VRVV (SEQ ID NO:41) with the polypeptides FR74.1, FR74.3, and FR74.8 as shown in FIG. 17. In parallel with these cultures, cultures are included in which inhibitors are included. The stoichiometric peptidyl inhibitor decanoyl-Arg-Val-Lys-Arg-CH2CL (SEQ ID NO:42) and α1-antitrypsin Portland, which are the two most commonly used inhibitors, are employed. […] Cultures are examined over a range of concentrations of inhibitors and assayed as described with ELIspot and proliferation assays. To generate Th cells, CD4^+ T cells are purified by incubation of splenocytes with anti-CD4^+ MACS microbeads (Miltenyi, Auburn, Calif.) for 20 minutes at 4° C., followed by positive selection of CD4^+ T cells using an AutoMACS automatic magnetic cell sorter according to the manufacturer's specifications. Th cell lines are established with bone marrow derived DC at a concentration of 5×10^4 T cells/mL in 24-well tissue culture-treated plates in complete medium on day 0. To derive the dendritic cells (DCs), bone marrow is harvested from the long bones of FVB/N mice and seeded in 6-well plates (3×10^6/well) in complete media with murine GM-CSF (10 ng/mL) and IL-4 (1 ng/mL). Media and cytokines are replaced after 3 days. On day 5, CPG is added to the cultures at 1 μg/mL, and the cells are ready for T cell induction on day 6. The tissue culture-generated DC are pulsed with 10 μg/mL FR74 peptide or its modifications and 10 μg/mL B7DC-crosslinking antibody at 37° C. for 4 hours. In these experiments, constant mass is maintained. Next, the peptide-loaded DC are washed with media, and the CD4+ T cells are added, and on days 8 and 10, IL-2 (50 U/mL) is added. On day 15, cells are assayed. For the ELIspot analysis, anti-IFN-γ (Pharmingen) antibody is added to a 96-well nitrocellulose-backed plate (NC-plate, Millipore) at 50 μL/well at a concentration of 10 μg/mL in PBS and incubated overnight at 4° C. The day of analysis, the NC-plate is washed with PBS and blocked for 1-2 hours at 37° C. with PBS/2%BSA. After blocking, the plate are again washed. The Th cells are transferred to the antibody-coated plates. Syngeneic naïve CD4 T cells alone without peptide antigen are used as the negative control. Th cells are seeded at 5×10^4 cells/well with a range of native (i.e., FR74) peptide, irrelevant peptide, FRαMMC tumor lysate, irrelevant tumor lysate, media or concanavalin A. Irradiated syngeneic splenocytes are added at 1 ×10^5 cells/well as antigen-presenting cells. The plate is incubated at 37° C. for 24 hours. The plate are washed with PBS/0.05% Tween-20, and 100 μL/well biotinylated anti-IFN-γ(5 μg/mL, Pharmingen) antibody are added to each well. […]

For a further experiment, the system named is splenocytes. The experiment can be described thus: Immunization with polypeptide-pulsed DC, splenocyte proliferation. The conditions noted are these: DC pulsed 2 hours; splenocytes at 1 week; FIG. 30. The class given is in vivo, FVB/N mice. The procedure:
FIG. 30. DC pulsed with modified polypeptides are more immunogenic than FR74-pulsed DC. […] Control=DC pulsed with media.
Alternatively, the strategies developed herein can be applied to other fields of immunotherapy. […] In that experiment, bone-marrow derived DC were pulsed with either PBS, FR74 peptide, or FR74.4 peptide for 2 hours. The DC were washed and injected into FVB/N mice.

For “FR74.4: dual conjugated polypeptide: FR74 nested between Ii-key and DC3 (Ac-LRMK[Ava]KDISYLYRFNWNHCGRARRFYPSYHSTPQRP)”, the “response of generated T cells to naturally processed antigen” value in the experiment on FR74-specific T cells (DC pulsed with FRα-expressing tumor cells, FIG. 6) is recorded as “retain the capability to respond to naturally processed antigen”. The “lowest peptide concentration at which generated T cells respond” value with FR74-specific T cells (IFN-γ ELIspot against native FR74, FIG. 4) is recorded as 10^−9 g/mL. The “ex vivo generation of FR74-specific T cells under equal molar amounts” value with FR74-specific T cells (equal molarity, FIG. 7) is on record as “superior ex vivo generation of FR74-specific T cells relative to the native polypeptide”. Also, the “generation of FR74-specific T cells” value with FR74-specific T cells (within 12 days of culture, compared to controls, equal masses, FIG. 4) is recorded as “T cell reactivity greater than either modification alone”. For the same substance, the “splenocyte proliferation in response to native FR74 antigen after DC immunization” value with splenocytes was “significantly elevated proliferative response”.

The values above are taken from US8858952B2, “Methods and materials for generating T cells” (Mayo Foundation for Medical Education and Research, priority 2009, dated 2014).
